One assay relates to T98G glioblastoma cells. Nature of the assay: MTT assay, cell viability of T98G. It counts as cell-based. Conditions: Homo sapiens, read-out: IC50 against T98G. As to the method: HeLa, Saos-2, HS-5, HepG2, T98G, and A2780 cells were purchased from American-type Culture Collection (ATCC, USA). A2780cis cell was purchased from Sigma. HeLa cells, HepG-2 cells, and T98G cells were cultured in MEM Medium supplemented with 10% v/v fetal bovine serum, 100 U/mL penicillin, and 100 μg/mL streptomycin. Saos-2 cells were cultured in McCoy's 5a Medium (for Saos-2) supplemented with 15% v/v fetal bovine serum, 100 U/mL penicillin, and 100 μg/mL streptomycin. HS-5 cells were cultured in Dulbecco's Modified Eagle's medium (DMEM) supplemented with 10% v fetal bovine serum (FBS), 100 U/mL penicillin, and 100 μg/mL streptomycin. A2780cis cells were cultured in RPMI 1640 Medium supplemented with 10% v/v fetal bovine serum, 100 U/mL penicillin, and 100 μg/mL streptomycin (cisplatin only necessary every 2-3 passages). All cells were maintained at 37° C. in a humidified atmosphere of 5% CO2.
An MTT assay was used to test the cytotoxicity. All different cell lines were seeded in 96-well plates at 1×10^5 cells/well for 24 hours followed by removal of the culture medium and subsequent addition of culture medium containing different concentrations of the precursors. […] The absorbance of each well at 595 nm was measured by a multimode microplate reader. […]

Assay [1] deals with cell death receptors (CD95, DR3, DR5, TNFR1, TNFR2) on A2780cis cells. The assay can be described thus: Antibody staining of cell death receptors (CLSM). Conditions: 1a 12.5 μM, 12 or 24 hours. The class given is cell-based, human. As to the method: Procedure recommended by ABCAM for antibody staining was used. Cells were seeded (100,000-200,000 cell/3.5 cm confocal dish) and attachment was allowed (24 hours). Cells were incubated with 12.5 μM of precursor 1a for 12 hours or 24 hours. Then the cells were washed with PBS buffer three times and fixed by 4% formaldehyde for 15 minutes. Fixed cells were then washed with PBS buffer three times and incubated in 1.0% BSA/10% normal goat serum/0.3M glycine in 0.1% PBS-Tween for 1 hour to permeabilize the cells and block non-specific protein-protein interactions. Then they were washed with PBS buffer three times and incubated with the primary antibody (diluted 1/100, overnight at 4° C.). Then they were washed with PBS buffer three times and exposed to the secondary antibody (ab150077 Alexa Fluor® 488 goat anti-rabbit IgG (H+L), green) at 2 μg/ml (diluted 1/1000) for 1 hour. Hoechst 33342 was used to stain the cell nuclei (blue). The sample was washed with PBS buffer three times and mounted for imaging.
Antibody staining was used to examine the extrinsic cell death signaling molecules induced by the assemblies of 1b. […]

In assay [2] the test system is F-actin in A2780cis cells. Nature of the assay: Actin staining (CLSM), A2780cis. It counts as cell-based, human. Conditions: 1a 12.5 μM, 12 hours. As to the method: Cells in exponential growth phase were seeded in confocal dish (3.5 cm) at 1×10^5 to 2×10^5 cells per dish. After putting the dish in incubator for 24 hours, culture medium was removed, and fresh medium containing precursor (12.5 μM 1a for A2780cis, 25 μM 1a for HeLa) was added. After 12 hours, the medium was removed and PBS was used to wash the cells for three times. After fixing by 4% paraformaldehyde for 15 minutes, 1 mL of 0.1% Triton X-100 in PBS buffer was added for 30 minutes. After washing the cells three times by PBS, 1 mL of 0.1% BSA in PBS was added for 30 minutes, and then the cells were washed by PBS for three times. 1 mL of PBS containing 5 unit of Alexa 633 was added to the cells for 1 hour. After removing the buffer and washing the cells three times by PBS, 1 mL of Hoechst (1 μg/mL) was added for 10 minutes. Then, the cells were washed three times with PBS buffer before imaging. […]

The subject of assay [3] is ER stress markers and ROS in A2780cis and HeLa cells. Nature of the assay: Western blot of ER stress markers and CLSM detection of ROS. It counts as cell-based, human. The following applies: 1a 12.5 μM, 12 hours for ROS. As for the experimental part: Further exploration of the mode of action of 1a against A2780cis and HeLa cells was carried out via Western blot for the following ER stress markers: CHOP, Bip, PDI, IRE1α, Calnexin, Erol-Lα, PERK, and β-actin; or p-SAPK/JNK. Western blot was carried out via gel electrophoresis at […] for 1.5 hrs, and then transferring the protein on the gel to PVDF membranes for overnight at […] (4° C.). After that, the membrane was incubated with primary antibodies (obtained from Cell Signaling Technology) overnight at 4° C. The membrane was then incubated with secondary antibodies for 1 h at room temperature. This was followed by the reaction with ECL solutions for 10 minutes, and analysis of the results by autoradiography. Generation of ROS was detected in CLSM images via DHE emissions in exposed cells. CLSM imaging was carried out at the excitation of 543 nm and DHE emission was detected at the wavelength at 575 nm to 625 nm; or detection of anti-phospho-SRC and anti-phospho-Akt.
For orientation: A western blot detects proteins with antibodies after separation by electrophoresis.

The values below come from patent US11040108B2, “Amino acid- and peptide-steroid conjugates and use thereof” (BRANDEIS UNIVERSITY, priority 2016, dated 2021).

Like-named read-outs stand apart in the source and are kept apart here.

Regarding `CC(C)CCC[C@@H](C)C1CC[C@H]2[C@@H]3CC=C4CC(OC(=O)NC(Cc5ccc(OP(=O)(O)O)cc5)C(=O)O)CC[C@]4(C)[C@H]3CC[C@]12C` (stereo partly drawn) [1a, Cholesterol-(phospho)D-Tyr], in the assay with T98G glioblastoma cells (48 hours), the IC50 – broadly, the concentration that gives 50% inhibition – amounted to 48 µM. In the assay with T98G glioblastoma cells (72 hours), the half-inhibitory concentration (IC50) was 37 µM. Besides, in assay [1], the “clustering of DR3 or TNF-R1” value is on record as “rather moderate” and the “clustering of DR5” value is given as “significant clustering”. In addition, the F-actin filaments entry in assay [2] is “short, ill-defined actin filament”. Moreover, the “ER stress markers and ROS generation” value in assay [3] was “induces cell apoptosis via ER stress and generation of ROS”.
